The source of these data is US20220249394A1 (priority 2019, published 2022).

SMILES strings stand for the structures.

The target of the test is protease K-resistance prion protein (PrP^Sc) in ScN2a cells (Mus musculus, UniProt P04925). It counts as cell-based. Conditions: 6 mM HFIP for 24 hours, protease K 10 μg/ml 37° C. 30 minutes, Western blotting, FIG. 2 #5 to #8. A general note: A western blot detects proteins with antibodies after separation by electrophoresis.

Regarding `OC(C(F)(F)F)C(F)(F)F` [HFIP, 1,1,1,3,3,3-hexafluoro-2-propanol], the “resistance of prion protein to protease K” value was “resistance to protease K was reduced”.
